Key:
[1] = refractive index (Na D-line) (dimensionless); wn = mass fraction of the nth substance listed; settings: 101.3 kPa, Liquid, Standard Abbe refractometry
[2] = wn = mass fraction of the nth substance listed; settings: 295 K, w2 = 0

[I-].[Na+] [sodium iodide] + O
refractive index, [1]
Settings	296 K	298 K
w1 = 0.332	1.3939	–
w1 = 0.359	1.40055	–
w1 = 0.374	1.4045	–
w1 = 0.39	1.40905	–
w1 = 0.408	1.41365	–
w1 = 0.427	1.4193	–
w1 = 0.449	1.426	–
w1 = 0.46	1.4295	–
w1 = 0.472	1.43335	–
w1 = 0.485	1.4376	–
w1 = 0.498	1.4421	1.4428
w1 = 0.512	–	1.44745
w1 = 0.513	1.44705	–
w1 = 0.518	–	1.44985
w1 = 0.524	–	1.45195
w1 = 0.528	1.4523	–
w1 = 0.53	–	1.45405
w1 = 0.536	–	1.45645
w1 = 0.543	–	1.45915
w1 = 0.544	1.4581	–
w1 = 0.549	–	1.4615
w1 = 0.556	–	1.46395
w1 = 0.56	1.4648	–
w1 = 0.563	–	1.4666
w1 = 0.57	–	1.4694
w1 = 0.577	–	1.4721
w1 = 0.579	1.472	–
w1 = 0.585	–	1.4744
w1 = 0.598	1.4797	–

O [water] + N#C[S-].[K+]
[1], w2 = 0
Settings	refractive index
293 K	1.3333
298 K	1.3326
303 K	1.3321
308 K	1.33165
313 K	1.33085

Settings	surface tension liquid-gas [mN/m]
[2], Wilhelmi plate	72.28

[2], 101.3 kPa, Liquid
Settings	mass density [kg/m3]	viscosity [mPa·s]
Buoyancy - hydrostatic balance	999	–
Concentric cylinders viscometry	–	0.975

Reference: the NIST ThermoML archive (doi:10.1021/acs.jced.7b00904)
